Source: patent publication US20260347353A1, “INDOLIZINE DERIVATIVES FOR TREATING CANCER” (Antares Therapeutics, Inc., priority 2022, published 2026)

Legend:
[1] = molecular target: T1, p53 Y220C mutant protein (amino acid residues 94-293) (Homo sapiens, UniProt P04637, Y220C); test: Surface Plasmon Resonance (SPR) assay, p53 Y220C Kd_kinetic; settings: multi-cycle kinetics, 16 or 20 °C, pH 7.5, 1:1 binding model
T1 construct: p53 Y220C mutant protein (amino acid residues 94-293)
Procedure, shortened: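 Kd from multi-cycle SPR kinetics fitted to a 1:1 model, using 2-fold, 7-point compound series over p53 Y220C (residues 94-293). Flow 30 μL/min, 60 s association, 120 s dissociation, at 16 or 20 °C in 50 mM Tris pH 7.5, 100 mM NaCl, 1 mM DTT, 0.01% Brij35, 0.05% Tween-20, 1% DMSO.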

[2] = molecular target: T1, p53 Y220C mutant protein (amino acid residues 94-293); test: Thermal Shift Assay (TSA), p53 Y220C dTM; format: binding
Method: […] The volume is 5 μL/well. The sealed plate is then loaded onto a QuantStudio 7 Flex instrument for melting temperature (TM) measurement. The temperature is increased from 30 °C to 50 °C, at a rate of 0.03 °C/second. Data are fit into a Boltzmann two-state model to determine the TM.

[3] = tested on: NUGC3 cells (p53 Y220C); test: Cell Proliferation Assay (CellTiter-Glo), NUGC3 p53 Y220C; format: cell-based; settings: Homo sapiens, NUGC-3, 120 h, 5 days, read-out: CTG NUGC3 P53 Y220C IC50
Procedure, shortened: (§1)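 Seeded at 250–500 cells/well, then compound-treated for 5 days; the NCIH1299 lines carry Tet-One inducible p53 Y220C or R273H transduced lentivirally. Viability by CellTiter-Glo luminescence after 10 min at room temperature; IC50 calculated.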

[4] = tested on: NCIH1299-inducible p53 Y220C cells; test: Cell Proliferation Assay (CellTiter-Glo), NCIH1299-inducible p53 Y220C; format: cell-based; settings: Homo sapiens, NCI-H1299, 120 h, 5 days, read-out: CTG H1299 P53 Y220C IC50
Procedure, shortened: as §1

[5] = tested on: NCIH1299-inducible p53 R273H cells; test: Cell Proliferation Assay (CellTiter-Glo), NCIH1299-inducible p53 R273H; format: cell-based; settings: Homo sapiens, NCI-H1299, 120 h, 5 days, read-out: CTG H1299 P53 R273H IC50
Method: Inducible p53 Y220C and R273H constructs (Tet-One inducible expression system; Takara) were stably expressed in NCIH1299 cells by lentiviral transduction. NUGC3, A549, BxPC3, T3M4, HuH7, HCC2935, MFE296, NCIH1299, NCIH1299-inducible p53 Y220C, and NCIH1299-inducible p53 R273H cell lines were used for cell proliferation assay. 250-500 cells were seeded in each well of 384 plate and then compounds were dispensed into each well using Echo or Tecan. After 5 days of incubation, equal volume of CellTiter-Glo reagent (G7570; Promega) was added into each well and the plate was incubated at room temperature for 10 minutes with shaking. The luminescent signal was measured by PheraStar microplate reader and IC50 was calculated.

[6] = molecular target: p53 Y220C (Homo sapiens, UniProt P04637, Y220C); test: Luciferase Reporter Assay, p53 Y220C (NCIH1299 cells with inducible p53 Y220C and p53 response element-luciferase); format: cell-based; settings: 6 hour compound treatment, read-out: Luc P53 Y220C AC50
Procedure, shortened: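 NCI-H1299 cells stably carrying a p53 response element-luciferase reporter and Tet-inducible p53 Y220C were induced with 0.5 ug/mL doxycycline for 24 h, then treated with compound for 6 h. Luminescence was read after One-Glo addition. AC50 was derived relative to 10 uM tool compound as positive control.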

Row | SMILES | Kd [1] | ΔTm at 10 µM ([2]; 10 uM compound) | ΔTm at 100 µM ([2]; 100 μM compound, 3 hours at 20 °C, pH 7.4) | AC50 [6] | IC50 [3] | IC50 [4] | IC50 [5]
1 | CN1CC[C@@H](Nc2cccn3c(SC(F)(F)F)c(-c4noc(CNC(=O)C5CC5)n4)nc23)[C@@H](F)C1 [Example 1, N-{[3-(8-{[(3S,4R)-3-fluoro-1-methylpiperidin-4-yl]amino}-3-[(trifluoromethyl)sulfanyl]imidazo[1,2-a]pyridin-2-yl)-1,2,4-oxadiazol-5-yl]methyl}cyclopropanecarboxamide] | 10 to 100 nM | 5 to 10 °C | 5 to 10 °C | ≥ 3000 nM | ≥ 3000 nM | ≥ 3000 nM | ≥ 10000 nM
2 | C[C@H](O)CC(=O)NCc1nc(-c2cc3c(N[C@@H]4CCN(C)C[C@@H]4F)cccn3c2SC(F)(F)F)no1 [Example 64, (3S)—N-{[3-(8-{[(3S,4R)-3-fluoro-1-methylpiperidin-4-yl]amino}-3-[(trifluoromethyl)sulfanyl]indolizin-2-yl)-1,2,4-oxadiazol-5-yl]methyl}-3-hydroxybutanamide] | 10 to 100 nM | – | – | ≥ 3000 nM | ≥ 3000 nM | ≥ 3000 nM | –
3 | CN1CC[C@@H](Nc2cccn3c(SC(F)(F)F)c(-c4noc(CNC(=O)CC(C)(C)O)n4)cc23)[C@@H](F)C1 [Example 65, N-{[3-(8-{[(3S,4R)-3-fluoro-1-methylpiperidin-4-yl]amino}-3-[(trifluoromethyl)sulfanyl]indolizin-2-yl)-1,2,4-oxadiazol-5-yl]methyl}-3-hydroxy-3-methylbutanamide] | 10 to 100 nM | – | – | ≥ 3000 nM | ≥ 3000 nM | ≥ 3000 nM | –

Second part, led by results:

Row | Kd [1] | ΔTm at 10 µM ([2]; 10 uM compound) | ΔTm at 100 µM ([2]; 100 μM compound, 3 hours at 20 °C, pH 7.4) | AC50 [6] | SMILES | IC50 [3] | IC50 [4] | IC50 [5]
4 | < 10 nM | – | – | 1500 to 3000 nM | CN1CC[C@@H](Nc2cccn3c(SC(F)(F)F)c(-c4noc(CNC(=O)[C@H]5C[C@@H](O)C5)n4)cc23)[C@@H](F)C1 [Example 62, (1s,3s)-N-{[3-(8-{[(3S,4R)-3-fluoro-1-methylpiperidin-4-yl]amino}-3-[(trifluoromethyl)sulfanyl]indolizin-2-yl)-1,2,4-oxadiazol-5-yl]methyl}-3-hydroxycyclobutane-1-carboxamide] | 1500 to 3000 nM | 750 to 1500 nM | –
5 | < 10 nM | – | – | 1500 to 3000 nM | C[C@@H](O)CC(=O)NCc1nc(-c2cc3c(N[C@@H]4CCN(C)C[C@@H]4F)cccn3c2SC(F)(F)F)no1 [Example 63, (3R)-N-{[3-(8-{[(3S,4R)-3-fluoro-1-methylpiperidin-4-yl]amino}-3-[(trifluoromethyl)sulfanyl]indolizin-2-yl)-1,2,4-oxadiazol-5-yl]methyl}-3-hydroxybutanamide] | 1500 to 3000 nM | ≥ 3000 nM | –
6 | < 10 nM | – | – | < 750 nM | CN1CC[C@@H](Nc2cccn3c(SC(F)(F)F)c(-c4noc(CNC(=O)c5cnc(N6CCOCC6)o5)n4)cc23)[C@@H](F)C1 [Example 66, N-{[3-(8-{[(3S,4R)-3-fluoro-1-methylpiperidin-4-yl]amino}-3-[(trifluoromethyl)sulfanyl]indolizin-2-yl)-1,2,4-oxadiazol-5-yl]methyl}-2-(morpholin-4-yl)-1,3-oxazole-5-carboxamide] | < 750 nM | < 750 nM | –
7 | < 10 nM | – | – | 750 to 1500 nM | CN1CC[C@@H](Nc2cccn3c(SC(F)(F)F)c(-c4noc(CNC(=O)N5CCOCC5)n4)cc23)[C@@H](F)C1 [Example 67, N-{[3-(8-{[(3S,4R)-3-fluoro-1-methylpiperidin-4-yl]amino}-3-[(trifluoromethyl)sulfanyl]indolizin-2-yl)-1,2,4-oxadiazol-5-yl]methyl}morpholine-4-carboxamide] | 1500 to 3000 nM | 750 to 1500 nM | –
